Source: ChEMBL document CHEMBL4689842, “EUbOPEN Chemogenomics Library wave 1” (2021)

Key:
Fibroblast = experiment: Incucyte cell viability with human fibroblast; format: toxicity, cell-based; settings: 10 µM, compound concentration 10 uM
HEK-293T = experiment: Incucyte cell viability with HEK293T; format: toxicity, cell-based; settings: human, 10 µM, compound concentration 10 uM
[1] = 0 h, replicate number 1, timepoint 0 hours
[2] = 6 h, replicate number 1, timepoint 6 hours
[3] = 12 h, replicate number 1, timepoint 12 hours
[4] = 18 h, replicate number 1, timepoint 18 hours
[5] = 24 h, replicate number 1, timepoint 24 hours
[6] = 0 h, replicate number 2, timepoint 0 hours
[7] = 6 h, replicate number 2, timepoint 6 hours
[8] = 12 h, replicate number 2, timepoint 12 hours
[9] = 18 h, replicate number 2, timepoint 18 hours
[10] = 24 h, replicate number 2, timepoint 24 hours
Further: filed as whole numbers so only -1 and 0 and 1 occur.

Compound	Growth Rate (Fibroblast; [1])	Growth Rate (Fibroblast; [2])	Growth Rate (Fibroblast; [3])	Growth Rate (Fibroblast; [4])	Growth Rate (Fibroblast; [5])	Growth Rate (HEK-293T; [6])	Growth Rate (HEK-293T; [2])	Growth Rate (HEK-293T; [3])	Growth Rate (HEK-293T; [4])	Growth Rate (HEK-293T; [5])	Growth Rate (Fibroblast; [6])	Growth Rate (Fibroblast; [7])	Growth Rate (HEK-293T; [1])	Growth Rate (HEK-293T; [7])	Growth Rate (HEK-293T; [8])	Growth Rate (HEK-293T; [9])	Growth Rate (Fibroblast; [8])	Growth Rate (Fibroblast; [10])	Growth Rate (Fibroblast; [9])	Growth Rate (HEK-293T; [10])
Cc1cc(C)cc(-c2cnc3cc(Cl)c(-c4cccc(O)c4)cc3c2OCCCN)c1	0	0	0	0	0	1	0	0	0	0										
Cc1sc2c(c1C)C(c1ccc(Cl)cc1)=N[C@@H](CC(=O)OC(C)(C)C)c1nnc(C)n1-2		0	0	0	0	1			1	0	0	1	0	0	0	0				
COc1cc(-n2cnc3cc(-c4ccc(Cl)cc4)sc3c2=O)ccc1OCCN1CCCC1		0	0	0	0	1	0	0	0	0										
Cc1csc2c(N[C@@H](C)CN3CCN(S(=O)(=O)c4ccc(Cl)c(Cl)c4)CC3)ncnc12	0		1	0	0		0	0	0	0		0	0				0			
Cc1[nH]c(/C=C2\C(=O)Nc3ccc(S(=O)(=O)N(C)c4cccc(Cl)c4)cc32)c(C)c1C(=O)N1CCN(C)CC1	0			1	1				0	0			0			1				
CNc1nc(NCc2ccc(NS(C)(=O)=O)cc2Cl)cc(-c2ccccn2)n1		0	0	0	0	0	0	0	0	0			1							
CC(C)(O)CNc1ncc(-c2ccnc(Nc3ccnc(Cl)c3)n2)c(CC2CC2)n1		0	0	0	0	1	0	0	0	0	1	1								
Cn1cc(-c2[nH]c3cc(NC(=O)[C@H](N)C4CCCCC4)cc4c3c2C=NNC4=O)cn1	0			1	1		0	0	0	0										
C=CC(=O)Nc1cccc(C(=O)Nc2ccc(Nc3cc(-c4[nH]c(SC)nc4C)ccn3)cc2)c1	0		0	1	1	1	0	0	0	0		1	0			1	1			
OC1(c2ccc(Cl)cc2)CCN(Cc2c[nH]c3ccccc23)CC1	0	0	0	0	0		0	0	0	0			1							
CC(C)C(=O)Nc1n[nH]c2cc(-c3cccc(NS(=O)(=O)C4CC4)c3)ccc12	1	0	0	0	0		0	0	0	0			0							
CN1C(=O)c2sccc2N(C)c2nc(Nc3ccc(S(N)(=O)=O)cc3)ncc21	0	1	0	0	0		0	0	0	0		0					1	1		
CN(C)C(=O)/C(C#N)=C/c1ccc(-c2nc3cnc4[nH]ccc4c3n2C2CCCCC2)o1		1	0	0	0						0		0						1	1
C=CC(=O)Nc1ccc2ncnc(Nc3ccc(OCc4cccc(F)c4)c(Cl)c3)c2c1.Cc1ccc(S(=O)(=O)O)cc1	0	0	0	0	0	1			0	0			0	0	0					
COc1cc2nccc(Oc3ccc(NC(=O)Nc4cc(C)on4)c(Cl)c3)c2cc1OC.O	0	0	0	0	0	0	0	0	0	0		1								
Cn1cncc1[C@@](O)(COc1ccc(C#N)cc1-c1ccc(OC(F)(F)F)cc1)c1ccc(C#N)cc1 [A-108]	1	0	0	0	0			1	0	0			1	0	0					
CN(C)CC#Cc1ccc(OCCCc2sc(N3CCc4cccc(C(=O)Nc5nc6ccccc6s5)c4C3)nc2C(=O)O)c(F)c1 [A-1155463]	0	0	0	0	0	1							0							1
NC(=O)Nc1cc(-c2cccc(F)c2)sc1C(=O)N[C@H]1CCCNC1 [AZD-7762]		1	0	0	0	1	0	0	0	0	0		0						1	
CN1CCCC(n2nc(Cc3ccc(Cl)cc3)c3ccccc3c2=O)CC1.Cl (stereo not given) [AZELASTINE HYDROCHLORIDE]	0		1	1	0	1	0	0	0	0		0					0		0	
Cn1c(-c2csc(C3CCN(CC4=NC5N=CC=CC5N4)CC3)n2)nc2ccccc21 (stereo not given) [BAY-070]		0	1	1	1		0	0	0	0	1									
CNCc1ccccc1-c1csc([C@H](C)Nc2nc(C)nc3cc(OC)c(OC)cc23)c1 [BAY-294]		0	0	0	0		0	0	0	0										
CN(C)c1ncnc(-c2ccc3nc(Nc4cc(CN5CCN(C(=O)CC(F)(F)F)CC5)ccn4)[nH]c3c2)c1Cl [BAY-440]	0	1	1	1	1	0	0	0	0	0								0	0	
COc1ccc(Oc2cc(NCCC(F)(F)F)c3ncc(-c4ccc(C(=O)NC5CC5)c(C)c4)n3n2)c(F)c1F [BAY-1217389]		0	0	0	0		0	0	0	0	1		0							
Cc1c(-c2ccc(O)cc2)n(Cc2ccc(OCCN3CCCCCC3)cc2)c2ccc(O)cc12 [BAZEDOXIFENE]	0	0	0	0	0	0	0	0	0	0										
